Measured values: US7517857B2, “Immune-modulating peptide” (POSCO, priority 2002, dated 2009)
Where a SMILES comes first, the peptide text is derived from it. Where no end group is shown, it is not given here. [ ]: non-standard residue; d: D form.

Assays:
[1] = target: T1, FPR (Homo sapiens, UniProt P21462); experiment: ERK phosphorylation in FPR-expressing RBL-2H3 cells (immunoblot); assay type: cell-based; details: for ERKs phosphorylation/activation: 10 μM peptides 2 min (WKYMVm time course 1 μM)
T1 construct: expressed in transfected cells; host or cells: RBL-2H3 (rat basophilic leukemia) cells, G418-selected
T1 sequence (P21462 1-350): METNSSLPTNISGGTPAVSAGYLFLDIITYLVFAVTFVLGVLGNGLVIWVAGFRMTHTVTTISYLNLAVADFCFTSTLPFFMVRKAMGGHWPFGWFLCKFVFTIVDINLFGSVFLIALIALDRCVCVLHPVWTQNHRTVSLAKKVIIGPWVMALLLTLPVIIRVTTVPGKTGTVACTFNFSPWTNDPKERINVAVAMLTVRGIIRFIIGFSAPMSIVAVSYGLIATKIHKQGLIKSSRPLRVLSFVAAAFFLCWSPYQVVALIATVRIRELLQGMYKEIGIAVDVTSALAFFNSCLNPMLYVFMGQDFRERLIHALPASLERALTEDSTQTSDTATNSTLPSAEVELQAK
Method: Cultured RBL-2H3 cells were aliquoted into 2×10^6 cells and stimulated with the indicated concentrations of WKYMVm and the peptides of the present invention for the indicated lengths of time. FPR- or FPRL1-expressing RBL-2H3 cells were stimulated with 1 μM WKYMVm for various periods of time (FIG. 3A). Two cells were preincubated with a vehicle or 100 ng/ml of PTX (24 hr), 50 μM of LY294002 (15 min), 5 μM of GFX (15 min), 10 μM BAPTA/AM (60 min), or 50 μM PD98059 (60 min) prior to 1 μM of WKYMVm treatment (FIG. 3B). FPR- or FPRL1-expressing RBL2H3 cells were stimulated with 10 μM of the peptides of the present invention for 2 min or 5 min, respectively (FIG. 3C).
After stimulation, the cells were washed with serum-free RPMI and lysed in a lysis buffer (20 mM Hepes, pH 7.2, 10% glycerol, 150 mM NaCl, 1% Triton X-100, 50 mM NaF, 1 mM Na3VO4, 10 μg/ml leupeptin, 10 μg/ml aprotinin, and 1 mM phenylmethylsulfonyl fluoride). The detergent-insoluble materials were pelleted by centrifugation (12,000×g, 15 min, at 4° C.), and the soluble supernatant fraction was removed and stored at −80° C. or used immediately. Protein concentrations in the lysates were determined using the Bradford protein assay reagent.
Each sample ([…] of protein) was subjected to 10% SDS-PAGE and phosphorylated ERK was determined by an immunoblot analysis with an anti-phospho-ERK antibody. Protein samples were prepared for electrophoresis by addition of a concentrated sample buffer. The portions in the samples were then separated by an 10% SDS-polyacrylamide gel using the buffer system described by Laemmli (17).
Following the electrophoresis, a western blot analysis with an anti-ERK2 antibody was performed to confirm that the same amounts of samples were used for the experiments. The proteins were blotted onto nitrocellulose membranes. The nitrocellulose membranes were then blocked by incubation with TBS (Tris-buffered saline, 0.05% Tween-20) containing 5% non-fat dry milk. Subsequently, the membranes were incubated with anti-phospho-ERK antibody, anti-phospho-Akt antibody or anti-Akt antibody washed with TBS. For a PKC translocation assay, an antibody for PKC isozyme-specific was incubated. Antigen-antibody complexes were visualized after incubating the membrane with a 1:5000 diluted goat anti-rabbit IgG or goat anti-mouse IgG antibody coupled to horseradish peroxidase and using the enhanced chemiluminescence detection system.

[2] = target: T1, FPR; experiment: Displacement of 125I-labeled WKYMVm binding to FPR (FPR-expressing RBL-2H3 cells); details: FIG. 2A
Method: From the finding that some of the peptides (WKGMVm (SEQ ID NO: 1), WKRMVm (SEQ ID NO: 11), D-Met^6 substituted peptides) could not induce a cytosolic calcium increase, it was checked whether the peptides can bind to FPR or not. Displacement of ^125I-labeled WKYMVm binding to FPR or FPRL1 by the peptides was monitored. FPR-expressing RBL-2H3 cells were incubated with [^125I] WKYMVm in the absence or presence of increasing amounts of unlabeled WKYMVm or the peptides of SEQ ID NOs: 1 to 24.
A ligand binding analysis was performed as modified from the previous report (16). The radioiodinated WKYMVm (^125I-labeled) was purchased from NEN Lifesciences (Boston, Mass.). Briefly, FPR- or FPRL1-expressing RBL-2H3 cells were seeded into 1×10^5 cells per well of a 24-well plate and cultured overnight. After blocking the cells with a blocking buffer (33 mM HEPES, pH 7.5, 0.1% BSA in RPMI) for 2 hr, a single concentration of ^125I-labeled WKYMVm was added to cells with a binding buffer (PBS containing 0.1% BSA) in the absence or presence of 50 μM unlabelled peptides and incubated for 3 hr at 4° C. with continuous shaking. Then the samples were washed 5 times with ice-cold binding buffer, and 200 μl of lysis buffer (20 mM Tris, pH 7.5, 1% Triton X-100) was added to each well. After 20 min of lysis at room temperature, the lysates were collected. Bound ^125I-labeled WKYMVm was measured for radioactivity for a γ-ray counter.

[3] = target: T1, FPR; experiment: Akt phosphorylation in FPR-expressing RBL-2H3 cells (immunoblot); assay type: cell-based; details: 10 μM peptides 2 min (WKYMVm time course 1 μM)
Method: It is well known that activation of chemoattractant receptors induces Akt activation via PI3K (19). Stimulation of cells with the peptides, electrophoresis and immunoblot analysis were performed according to the same method as in Example 5.
FPR- or FPRL1-expressing RBL-2H3 cells were stimulated with 1 μM WKYMVm for various periods of time (FIG. 4A). Two cells were preincubated with a vehicle or 100 ng/ml of PTX (24 hr), 50 μM of LY294002 (15 min), 5 μM of GFX (15 min), 10 μM BAPTA/AM (60min), or 50 μM PD98059 (60 min) prior to treatment with 1 μM of WKYMVm (FIG. 4B). FPR- and FPRL1-expressing RBL2H3 cells were stimulated with 10 μM of WKYMVm and the present peptides for 2 min or 5 min, respectively (FIG. 4C). Each sample (30 μg of protein) was subjected to 10% SDS-PAGE and phosphorylated Akt was determined by immunoblot analysis with an anti-phospho-Akt antibody. A western blot analysis with an anti-Akt antibody was performed to confirm that the same amounts of samples were used for the experiments. The results are shown FIGS. 4A to 4C. Results of FIGS. 4A to 4C are the representative of 3 independent experiments.

Compound	ERKs phosphorylation/activation [1]	inhibition of [^125I] WKYMVm binding [2]	Akt phosphorylation [3]	time of maximal ERKs activity after peptide treatment ([1]; 1 μM WKYMVm)
CSCC[C@H](NC(=O)CNC(=O)[C@H](CCCCN)NC(=O)[C@@H](N)Cc1c[nH]c2ccccc12)C(=O)N[C@H](C(=O)N[C@H](CCSC)C(N)=O)C(C)C [WKGMVm-NH2, Trp-Lys-Gly-Met-Val-D-Met-NH2] (H-WKGMV[dM]-NH2; N-terminus assumed)	stimulated ERKs phosphorylation	inhibited binding of [^125I] WKYMVm in a concentration-dependent manner	caused Akt phosphorylation	
CSCC[C@H](NC(=O)[C@H](Cc1ccc(O)cc1)NC(=O)[C@H](CCCCN)NC(=O)[C@@H](N)Cc1c[nH]c2ccccc12)C(=O)N[C@H](C(=O)N[C@H](CCSC)C(N)=O)C(C)C [WKYMVm-NH2, Trp-Lys-Tyr-Met-Val-D-Met-NH2, reference compound]	induced transient activation of ERKs	inhibited binding of [^125I] WKYMVm in a concentration-dependent manner	caused Akt phosphorylation	2 min
WKYMVE-NH2 [WKYMVE-NH2, Trp-Lys-Tyr-Met-Val-Glu-NH2]	stimulated ERKs phosphorylation		caused Akt phosphorylation	
CSCC[C@H](NC(=O)[C@H](CCCNC(=N)N)NC(=O)[C@H](CCCCN)NC(=O)[C@@H](N)Cc1c[nH]c2ccccc12)C(=O)N[C@H](C(=O)N[C@H](CCSC)C(N)=O)C(C)C [WKRMVm-NH2, Trp-Lys-Arg-Met-Val-D-Met-NH2] (H-WKRMV[dM]-NH2; N-terminus assumed)	stimulated ERKs phosphorylation	inhibited binding of [^125I] WKYMVm in a concentration-dependent manner	caused Akt phosphorylation	
WKYMVR-NH2 [WKYMVR-NH2, Trp-Lys-Tyr-Met-Val-Arg-NH2]	stimulated ERKs phosphorylation		caused Akt phosphorylation	
